Here are results for 17 compounds from patent US8754054B2, “Antibacterial compounds, methods of making them, and uses thereof” (Albany Molecular Research, Inc., priority 2010, dated 2014).

As usually defined, the MIC is the lowest concentration that inhibits growth of the organism.

The test deals with MRSA 43300. Description: Antibacterial activity, NCCLS dilution method (Table 9). To be noted: Staphylococcus aureus, MRSA, MRSA 43300; dilution method; labels marked a tested as a mixture of diastereomers; read-out: MRSA 43300 MIC. It is filed as cell-based, S. aureus. An excerpt:
NCCLS standards for antimicrobial susceptibility testing using the dilution method were followed. See: Performance Standards for Antimicrobial Susceptibility Testing; Fourteenth Informational Supplement. NCCLS Document M100-S14 (ISBN 1-56238-516-X), 2004. NCCLS, 940 West Valley Road, Suite 1400, Wayne, Pa. 19087-1898 USA, 2004; Methods for Dilution Antimicrobial Susceptibility Tests for Bacteria that Grow Aerobically; Approved Standard—Sixth Edition. NCCLS document M7-A6 (IBSBN 1-56238-486-4), NCCLS, 940 West Valley Road, Suite 1400, Wayne, Pa. 19087-1898 USA, 2003, which are hereby incorporated by reference in their entirety.

≈ marks a conversion by molar mass, not a printed value.

Consider `COC(=O)c1c(C)cc2c(c1O)[C@]1(O)C(=O)c3cc4c(c(O)c3C(=O)[C@]1(OC)[C@H](O)C2)C(=O)C=C(N[C@H]1O[C@@H](C)[C@H](OC)[C@@H](O)[C@H]1OC)C4(C)O` (single isomer, unassigned) [Example 55], for which the MIC worked out at 32 µg/mL (≈ 44.8 µM).

On to `COC(=O)c1c(C)cc2c(c1O)[C@]1(O)C(=O)c3cc4c(c(O)c3C(=O)[C@]1(OC)[C@H](O)C2)C(=O)C=C(N[C@H]1O[C@@H](C)[C@H](OC)[C@@H](O)[C@H]1OC)C4(O)c1ccccc1` (single isomer, unassigned) [Example 56], for which the MIC was 8 µg/mL (≈ 10.3 µM).

For `COC(=O)c1c(C)cc2c(c1O)[C@]1(O)C(=O)c3cc4c(c(O)c3C(=O)[C@]1(OC)[C@H](O)C2)C(=O)C=C(N[C@H]1O[C@@H](C)[C@H](OC)[C@@H](O)[C@H]1OC)C4(O)c1ccc(F)cc1` (single isomer, unassigned) [Example 58], the MIC was 8 to 16 µg/mL (≈ 10.1 to 20.2 µM).

Consider `COC(=O)c1c(C)cc2c(c1O)[C@]1(O)C(=O)c3cc4c(c(O)c3C(=O)[C@]1(OC)[C@H](O)C2)C(=O)C=C(N[C@H]1O[C@@H](C)[C@H](OC)[C@@H](O)[C@H]1OC)C4=O` [Example 2, (6R,6aS,14aR)-methyl 1,6,8,14a-tetrahydroxy-11-((2S,3R,4R,5R,6S)-4-hydroxy-3,5-dimethoxy-6-methyltetrahydro-2H-pyran-2-ylamino)-6a-methoxy-3-methyl-7,9,12,14-tetraoxo-5,6,6a,7,9,12,14,14a-octahydrobenzo[a]tetracene-2-carboxylate], for which the MIC came out at 0.008 µg/mL (≈ 0.0115 µM).

As for `COC(=O)c1c(C)cc2c(c1OC)[C@]1(O)C(=O)c3cc4c(c(O)c3C(=O)[C@]1(OC)[C@H](O)C2)C(=O)C=C(N[C@H]1O[C@@H](C)[C@H](OC)[C@@H](O)[C@H]1OC)C4=O` [Example 4, (6R,6aS,14aR)-Methyl 6,8,14a-trihydroxy-11-((2S,3R,4R,5R,6S)-4-hydroxy-3,5-dimethoxy-6-methyltetrahydro-2H-pyran-2-ylamino)-1,6a-dimethoxy-3-methyl-7,9,12,14-tetraoxo-5,6,6a,7,9,12,14,14a-octahydrobenzo[a]tetracene-2-carboxylate], the MIC lay within 0.06 to 0.12 µg/mL (≈ 0.0843 to 0.169 µM).

As to `COC(=O)COc1c(C(=O)OC)c(C)cc2c1[C@]1(O)C(=O)c3cc4c(c(O)c3C(=O)[C@]1(OC)[C@H](O)C2)C(=O)C=C(N[C@H]1O[C@@H](C)[C@H](OC)[C@@H](O)[C@H]1OC)C4=O` [Example 6, (6R,6aS,14aR)-Methyl 6,8,14a-trihydroxy-11-((2S,3R,4R,5R,6S)-4-hydroxy-3,5-dimethoxy-6-methyltetrahydro-2H-pyran-2-ylamino)-6a-methoxy-1-(2-methoxy-2-oxoethoxy)-3-methyl-7,9,12,14-tetraoxo-5,6,6a,7,9,12,14,14a-octahydrobenzo[a]tetracene-2-carboxylate], the MIC amounted to 0.12 µg/mL (≈ 0.156 µM).

For `COC(=O)c1c(C)cc2c(c1OCc1ccccc1)[C@]1(O)C(=O)c3cc4c(c(O)c3C(=O)[C@]1(OC)[C@H](O)C2)C(=O)C=C(N[C@H]1O[C@@H](C)[C@H](OC)[C@@H](O)[C@H]1OC)C4=O` [Example 7, (6R,6aS,14aR)-Methyl 1-(benzyloxy)-6,8,14a-trihydroxy-11-((2S,3R,4R,5R,6S)-4-hydroxy-3,5-dimethoxy-6-methyltetrahydro-2H-pyran-2-ylamino)-6a-methoxy-3-methyl-7,9,12,14-tetraoxo-5,6,6a,7,9,12,14,14a-octahydrobenzo[a]tetracene-2-carboxylate], the MIC turned out to be 0.12 µg/mL (≈ 0.152 µM).

As for `COC(=O)c1c(C)cc2c(c1OCC(=O)OCc1ccccc1)[C@]1(O)C(=O)c3cc4c(c(O)c3C(=O)[C@]1(OC)[C@H](O)C2)C(=O)C=C(N[C@H]1O[C@@H](C)[C@H](OC)[C@@H](O)[C@H]1OC)C4=O` [Example 8, (6R,6aS,14aR)-Methyl 1-(2-(benzyloxy)-2-oxoethoxy)-6,8,14a-trihydroxy-11-((2S,3R,4R,5R,6S)-4-hydroxy-3,5-dimethoxy-6-methyltetrahydro-2H-pyran-2-ylamino)-6a-methoxy-3-methyl-7,9,12,14-tetraoxo-5,6,6a,7,9,12,14,14a-octahydrobenzo[a]tetracene-2-carboxylate], the MIC stood at 1 µg/mL (≈ 1.18 µM).

With `COC(=O)c1c(C)cc2c(c1OCC(=O)O)[C@]1(O)C(=O)c3cc4c(c(O)c3C(=O)[C@]1(OC)[C@H](O)C2)C(=O)C=C(NC1O[C@@H](C)[C@H](OC)[C@@H](O)[C@H]1OC)C4=O` (stereo partly drawn) [Example 9, 2-((6R,6aS,14aR)-6,8,14a-Trihydroxy-11-((3R,4R,5R,6S)-4-hydroxy-3,5-dimethoxy-6-methyltetrahydro-2H-pyran-2-ylamino)-6a-methoxy-2-(methoxycarbonyl)-3-methyl-7,9,12,14-tetraoxo-5,6,6a,7,9,12,14,14a-octahydrobenzo[a]tetracen-1-yloxy)acetic acid], the MIC was found to be 32 µg/mL (≈ 42.3 µM).

Turning to `COC(=O)c1c(C)cc2c(c1OCC(N)=O)[C@]1(O)C(=O)c3cc4c(c(O)c3C(=O)[C@]1(OC)[C@H](O)C2)C(=O)C=C(NC1O[C@@H](C)[C@H](OC)[C@@H](O)[C@H]1OC)C4=O` (stereo partly drawn) [Example 10, (6R,6aS,14aR)-Methyl 1-(2-amino-2-oxoethoxy)-6,8,14a-trihydroxy-11-((3R,4R,5R,6S)-4-hydroxy-3,5-dimethoxy-6-methyltetrahydro-2H-pyran-2-ylamino)-6a-methoxy-3-methyl-7,9,12,14-tetraoxo-5,6,6a,7,9,12,14,14a-octahydrobenzo[a]tetracene-2-carboxylate], the MIC worked out at 32 µg/mL (≈ 42.4 µM).

Turning to `COC(=O)c1c(C)cc2c(c1OCc1cccnc1)[C@]1(O)C(=O)c3cc4c(c(O)c3C(=O)[C@]1(OC)[C@H](O)C2)C(=O)C=C(N[C@H]1O[C@@H](C)[C@H](OC)[C@@H](O)[C@H]1OC)C4=O.Cl` [Example 11, (6R,6aS,14aR)-Methyl 6,8,14a-trihydroxy-11-((2S,3R,4R,5R,6S)-4-hydroxy-3,5-dimethoxy-6-methyltetrahydro-2H-pyran-2-ylamino)-6a-methoxy-3-methyl-7,9,12,14-tetraoxo-1-(pyridin-3-ylmethoxy)-5,6,6a,7,9,12,14,14a-octahydrobenzo[a]tetracene-2-carboxylate hydrochloride], the MIC was in the range of 0.12 to 0.25 µg/mL.

Regarding `COC(=O)c1c(C)cc2c(c1OCC(=O)N1CCCCC1)[C@]1(O)C(=O)c3cc4c(c(O)c3C(=O)[C@]1(OC)[C@H](O)C2)C(=O)C=C(N[C@H]1O[C@@H](C)[C@H](OC)[C@@H](O)[C@H]1OC)C4=O` [Example 12, (6R,6aS,14aR)-Methyl 6,8,14a-trihydroxy-11-((2S,3R,4R,5R,6S)-4-hydroxy-3,5-dimethoxy-6-methyltetrahydro-2H-pyran-2-ylamino)-6a-methoxy-3-methyl-7,9,12,14-tetraoxo-1-(2-oxo-2-(piperidin-1-yl)ethoxy)-5,6,6a,7,9,12,14,14a-octahydrobenzo[a]tetracene-2-carboxylate], the MIC was 0.25 to 1 µg/mL (≈ 0.304 to 1.22 µM).

On to `CO[C@@H]1[C@@H](O)[C@@H](OC)[C@@H](NC2=CC(=O)c3c(cc4c(c3O)C(=O)[C@]3(OC)[C@H](O)Cc5cc(C)c(C(=O)O)c(O)c5[C@]3(O)C4=O)C2=O)O[C@H]1C` [Example 13, (6R,6aS,14aR)-1,6,8,14a-Tetrahydroxy-11-((2S,3R,4R,5R,6S)-4-hydroxy-3,5-dimethoxy-6-methyltetrahydro-2H-pyran-2-ylamino)-6a-methoxy-3-methyl-7,9,12,14-tetraoxo-5,6,6a,7,9,12,14,14a-octahydrobenzo[a]tetracene-2-carboxylic acid], for which the MIC is 32 µg/mL (≈ 46.8 µM).

As to `CO[C@@H]1[C@@H](O)[C@@H](OC)[C@@H](NC2=CC(=O)c3c(cc4c(c3O)C(=O)[C@]3(OC)[C@H](O)Cc5cc(C)c(C(N)=O)c(O)c5[C@]3(O)C4=O)C2=O)O[C@H]1C` [Example 20, (6R,6aS,14aR)-1,6,8,14a-Tetrahydroxy-11-((2S,3R,4R,5R,6S)-4-hydroxy-3,5-dimethoxy-6-methyltetrahydro-2H-pyran-2-ylamino)-6a-methoxy-3-methyl-7,9,12,14-tetraoxo-5,6,6a,7,9,12,14,14a-octahydrobenzo[a]tetracene-2-carboxamide], the MIC is 2 µg/mL (≈ 2.93 µM).

On to `COc1ccc(CNC(=O)c2c(C)cc3c(c2O)[C@]2(O)C(=O)c4cc5c(c(O)c4C(=O)[C@]2(OC)[C@H](O)C3)C(=O)C=C(N[C@H]2O[C@@H](C)[C@H](OC)[C@@H](O)[C@H]2OC)C5=O)cc1` [Example 28, (6R,6aS,14aR)-1,6,8,14a-Tetrahydroxy-11-((3R,4R,5R,6S)-4-hydroxy-3,5-dimethoxy-6-methyltetrahydro-2H-pyran-2-ylamino)-6a-methoxy-N-(4-methoxybenzyl)-3-methyl-7,9-12-14-tetraoxo-5,6,6a,7,9,12,14,14a-octahydrobenzo[a]tetracene-2-carboxamide], for which the MIC worked out at 0.5 µg/mL (≈ 0.623 µM).

In the case of `CO[C@@H]1[C@@H](O)[C@@H](OC)[C@@H](NC2=CC(=O)c3c(cc4c(c3O)C(=O)[C@]3(OC)[C@H](O)Cc5cc(C)c(C(=O)OCCCc6ccccc6)c(O)c5[C@]3(O)C4=O)C2=O)O[C@H]1C` [Example 33, (6R,6aS,14aR)-3-Phenylpropyl 1,6,8,14a-tetrahydroxy-11-((2S,3R,4R,5R,6S)-4-hydroxy-3,5-dimethoxy-6-methyltetrahydro-2H-pyran-2-ylamino)-6a-methoxy-3-methyl-7,9,12,14-tetraoxo-5,6,6a,7,9,12,14,14a-octahydrobenzo[a]tetracene-2-carboxylate], the MIC was 1 to 2 µg/mL (≈ 1.25 to 2.49 µM).

As for `CCOC(=O)c1c(C)cc2c(c1O)[C@]1(O)C(=O)c3cc4c(c(O)c3C(=O)[C@]1(OC)[C@H](O)C2)C(=O)C=C(N[C@H]1O[C@@H](C)[C@H](OC)[C@@H](O)[C@H]1OC)C4=O` [Example 34, (6R,6aS,14aR)-Ethyl 1,6,8,14a-tetrahydroxy-11-((2S,3R,4R,5R,6S)-4-hydroxy-3,5-dimethoxy-6-methyltetrahydro-2H-pyran-2-ylamino)-6a-methoxy-3-methyl-7,9,12,14-tetraoxo-5,6,6a,7,9,12,14,14a-octahydrobenzo[a]tetracene-2-carboxylate], the MIC fell in the range of 0.008 to 0.016 µg/mL (≈ 0.0112 to 0.0225 µM).
